Assay results published in patent US20240382487A1, “NOVEL COPI/ARF1-LIPOLYSIS PATHWAY INHIBITOR AND COMPOUND FOR ERADICATING CANCER STEM CELLS AND INDUCING DAMP-MEDIATED ANTI-TUMOR IMMUNE RESPONSE” (FUDAN UNIVERSITY, priority 2020, published 2024).

Test system: liver tumors in MYC-ON mice
Experiment: MYC-ON liver tumor model
Assay type: in vivo
Description: We used the Tet system to generate transgenic mice conditionally expressing the myc pro-oncogene in hepatocytes, […] myc/lap TTA (lt2-myc) (shachaf et al., 2004). We crossed tre-myc mice with a transgenic line, lap TTA. in which the liver activator protein (LAP) promoter drives the expression of tetracycline trans-activator protein (TTA) in hepatocytes. We confirmed this by discontinuing the feeding of doxycycline (myc-ON) activated myc transgene expression in 3-week-old mice. Subsequently. all transgenic mice overexpressing myc succumbed to liver tumors with a mean latency to tumor onset of 12 weeks, as previously reported (shachaf et al., 2004). In this lap TTA/tet-off myc conditional transgenic mouse model, myc overexpression in adult mice reproducibly induces liver cancer, similar to hepatocellular carcinoma and/or hepatoblastoma. The transgenic tumor invades the entire liver locally and is frequently associated with malignant peritoneal effusions that spread to the thoracic cavity by metastasis and invade the lung parenchyma.
For the mouse liver tumor model, mating cages and weaning cages were administrated by a grain based rodent diet (Bio-Serv. Cat #14-727-450) containing 200 mg/kg doxycycline, and the mice were induced tumors at 6 weeks of age, by changing to a normal diet. Mice were divided into three groups, control, Du 101 treated and du102 treated. The control group was given 100 by gavage using a feeding tube 100 μl/10 g body weight (BW) 20% DMSO+80% corn oil. Du 101 treated groups were treated with 25 mg/ml Du 101. The stock solution was diluted 1:4 with corn oil to make the working solution. Dul02 treatment groups were treated with 25 mg/ml du102 stock solution diluted 1:4 with corn oil to make working solutions. The mixed working solution was administered to mice by gavage using a feeding tube. Starting from the second week of myc-0n, 5 injections per week ([…]) were given for 4 weeks, mice were monitored every 2 days, and 10 weeks later mice were euthanized and analyzed for tumor growth.
For the myc-on liver tumor model, antibodies were i.p. Mg/kg) was injected once a week for 5 consecutive weeks, the first Doxycycline was discontinued weekly after injection. Antibodies used to treat mice were as follows: anti-CD4 (clone GK1.5, BioXcell, Cat #BE0003-1), anti-CD8 a (clone 2.43, BioXcell, Cat #BE0061) Or […] rat IgG (bioxcell, cat #be0094) isotype control antibody. From the second week of myc-on initiation lasted for 4 weeks, Du 102 and DMSO were administered by gavage needle as described above, mice were monitored every 2 days, and 10 weeks later mice were euthanized and analyzed for tumor growth.
For the myc-on liver tumor model, antibodies were i.p. Injection once a week for 5 weeks, and doxycycline was discontinued weekly after the first injection. Antibodies used to treat mice were as follows: 100 ug/mouse Armenian hamster anti mouse PD1 (J43, bioxcell, cat #be0033-2) and 100 ug/mouse Armenian hamster isotype IgG (bioxcell. cat #bp0091) was used as controls. For 4 weeks from the second week of myc-on, Du 102 and DMSO were administered by gavage needle as described above, mice were monitored every 2 days. and 10 weeks later mice were euthanized and analyzed for tumor growth. Coadministration of anti-PD-1 antibodies may allow the use of lower, less toxic doses of du102, thus avoiding known side effects.

1H-indolo-5-carbaldehyde 5,6,7,8,9,10-hexahydrocycloocta[4,5]thieno[2,3-d]pyrimidin-4-ylhydrazone [Du 102]
survival time of myc-on mice: prolonged the survival time
anti-tumor effects (liver tumors) (Du102 + Anti-CD4): 69.5
anti-tumor effects (liver tumors) (Du102 + Anti-CD4/CD8): 89.7
number of tumors (Du102 + Anti-PD-1): 4.4
anti-tumor effects (liver tumors) (Du102 + Isotype, Table 18): 27.5
number of tumors (Du102 + Isotype, Table 19): 42.3
liver tumor numbers (gavage, 5 per week for 4 weeks, analyzed 10 weeks later): 26.7
